Assay results as given in the NIST ThermoML archive (doi:10.1016/j.jct.2007.05.011).
Numbers after ± are expanded uncertainties.

Experiment: xn = mol fraction of the nth substance listed
Settings: 101 kPa, Liquid; for mass density: Vibrating tube method

SMILES: NCCO.O=CO [2-hydroxyethylammonium formate] + CO
- mass density (315.65 K, x2 = 0.5): 1060.02 ± 30 kg/m3
- mass density (315.65 K, x2 = 0.598): 1026.37 ± 30 kg/m3
- mass density (315.65 K, x2 = 0.701): 984.31 ± 30 kg/m3
- mass density (315.65 K, x2 = 0.799): 931.919 ± 30 kg/m3
- mass density (315.65 K, x2 = 0.9): 863.489 ± 30 kg/m3
- mass density (315.65 K, x2 = 0.951): 819.788 ± 30 kg/m3
- speed of sound (315.65 K, x2 = 0): 1666.7 ± 9.7 m/s
- speed of sound (315.65 K, x2 = 0.055): 1687.6 ± 9.6 m/s
- speed of sound (315.65 K, x2 = 0.098): 1675.8 ± 9.5 m/s
- speed of sound (315.65 K, x2 = 0.193): 1644.8 ± 9.2 m/s
- speed of sound (315.65 K, x2 = 0.296): 1606.7 ± 8.8 m/s
- speed of sound (315.65 K, x2 = 0.399): 1561.9 ± 8.5 m/s
- speed of sound (315.65 K, x2 = 0.5): 1509.9 ± 8.1 m/s
- speed of sound (315.65 K, x2 = 0.598): 1450.1 ± 7.8 m/s
- speed of sound (315.65 K, x2 = 0.701): 1377.9 ± 7.4 m/s
- speed of sound (315.65 K, x2 = 0.799): 1291.2 ± 6.9 m/s
- speed of sound (315.65 K, x2 = 0.9): 1184.2 ± 6.4 m/s
- speed of sound (315.65 K, x2 = 0.951): 1118.4 ± 6.1 m/s
- mass density (318.15 K, x2 = 0): 1162.29 ± 31 kg/m3
- mass density (318.15 K, x2 = 0.055): 1156.21 ± 31 kg/m3
- mass density (318.15 K, x2 = 0.098): 1149.67 ± 30 kg/m3
- mass density (318.15 K, x2 = 0.193): 1132.83 ± 30 kg/m3
- mass density (318.15 K, x2 = 0.296): 1112 ± 30 kg/m3
- mass density (318.15 K, x2 = 0.399): 1087.29 ± 30 kg/m3
- mass density (318.15 K, x2 = 0.5): 1058.22 ± 30 kg/m3
- mass density (318.15 K, x2 = 0.598): 1024.52 ± 30 kg/m3
- mass density (318.15 K, x2 = 0.701): 982.388 ± 30 kg/m3
- mass density (318.15 K, x2 = 0.799): 929.9 ± 30 kg/m3
- mass density (318.15 K, x2 = 0.9): 861.326 ± 30 kg/m3
- mass density (318.15 K, x2 = 0.951): 817.518 ± 30 kg/m3
- speed of sound (318.15 K, x2 = 0): 1660.8 ± 9.6 m/s
- speed of sound (318.15 K, x2 = 0.055): 1682.5 ± 9.6 m/s
- speed of sound (318.15 K, x2 = 0.098): 1670.7 ± 9.5 m/s
- speed of sound (318.15 K, x2 = 0.193): 1639.5 ± 9.2 m/s
- speed of sound (318.15 K, x2 = 0.296): 1601.3 ± 8.8 m/s
- speed of sound (318.15 K, x2 = 0.399): 1556.4 ± 8.5 m/s
- speed of sound (318.15 K, x2 = 0.5): 1504.2 ± 8.1 m/s
- speed of sound (318.15 K, x2 = 0.598): 1444.2 ± 7.7 m/s
- speed of sound (318.15 K, x2 = 0.701): 1371.7 ± 7.3 m/s
- speed of sound (318.15 K, x2 = 0.799): 1284.6 ± 6.9 m/s
- speed of sound (318.15 K, x2 = 0.9): 1177.1 ± 6.4 m/s
- speed of sound (318.15 K, x2 = 0.951): 1110.9 ± 6.1 m/s
- mass density (320.65 K, x2 = 0): 1160.51 ± 31 kg/m3
- mass density (320.65 K, x2 = 0.055): 1154.57 ± 31 kg/m3
- mass density (320.65 K, x2 = 0.098): 1148.03 ± 30 kg/m3
- mass density (320.65 K, x2 = 0.193): 1131.15 ± 30 kg/m3
- mass density (320.65 K, x2 = 0.296): 1110.29 ± 30 kg/m3
- mass density (320.65 K, x2 = 0.399): 1085.54 ± 30 kg/m3
- mass density (320.65 K, x2 = 0.5): 1056.43 ± 30 kg/m3
- mass density (320.65 K, x2 = 0.598): 1022.67 ± 30 kg/m3
- mass density (320.65 K, x2 = 0.701): 980.467 ± 30 kg/m3
- mass density (320.65 K, x2 = 0.799): 927.874 ± 30 kg/m3
- mass density (320.65 K, x2 = 0.9): 859.158 ± 30 kg/m3
- mass density (320.65 K, x2 = 0.951): 815.245 ± 30 kg/m3
- speed of sound (320.65 K, x2 = 0): 1654.8 ± 9.6 m/s
- speed of sound (320.65 K, x2 = 0.055): 1677.4 ± 9.6 m/s
- speed of sound (320.65 K, x2 = 0.098): 1665.5 ± 9.4 m/s
- speed of sound (320.65 K, x2 = 0.193): 1634.3 ± 9.1 m/s
- speed of sound (320.65 K, x2 = 0.296): 1596 ± 8.8 m/s
- speed of sound (320.65 K, x2 = 0.399): 1550.9 ± 8.4 m/s
- speed of sound (320.65 K, x2 = 0.5): 1498.5 ± 8.1 m/s
- speed of sound (320.65 K, x2 = 0.598): 1438.3 ± 7.7 m/s
- speed of sound (320.65 K, x2 = 0.701): 1365.5 ± 7.3 m/s
- speed of sound (320.65 K, x2 = 0.799): 1278 ± 6.9 m/s
- speed of sound (320.65 K, x2 = 0.9): 1170 ± 6.4 m/s
- speed of sound (320.65 K, x2 = 0.951): 1103.5 ± 6.1 m/s
- mass density (323.15 K, x2 = 0): 1158.73 ± 31 kg/m3
- mass density (323.15 K, x2 = 0.055): 1152.94 ± 31 kg/m3
- mass density (323.15 K, x2 = 0.098): 1146.39 ± 30 kg/m3
- mass density (323.15 K, x2 = 0.193): 1129.49 ± 30 kg/m3
- mass density (323.15 K, x2 = 0.296): 1108.59 ± 30 kg/m3
- mass density (323.15 K, x2 = 0.399): 1083.8 ± 30 kg/m3
- mass density (323.15 K, x2 = 0.5): 1054.64 ± 30 kg/m3
- mass density (323.15 K, x2 = 0.598): 1020.83 ± 30 kg/m3
- mass density (323.15 K, x2 = 0.701): 978.549 ± 30 kg/m3
- mass density (323.15 K, x2 = 0.799): 925.853 ± 30 kg/m3
- mass density (323.15 K, x2 = 0.9): 856.995 ± 30 kg/m3
- mass density (323.15 K, x2 = 0.951): 812.98 ± 30 kg/m3
- speed of sound (323.15 K, x2 = 0): 1648.9 ± 9.6 m/s
- speed of sound (323.15 K, x2 = 0.055): 1672.4 ± 9.6 m/s
- speed of sound (323.15 K, x2 = 0.098): 1660.5 ± 9.4 m/s
- speed of sound (323.15 K, x2 = 0.193): 1629.2 ± 9.1 m/s
- speed of sound (323.15 K, x2 = 0.296): 1590.7 ± 8.8 m/s
- speed of sound (323.15 K, x2 = 0.399): 1545.5 ± 8.4 m/s
- speed of sound (323.15 K, x2 = 0.5): 1492.9 ± 8.1 m/s
- speed of sound (323.15 K, x2 = 0.598): 1432.5 ± 7.7 m/s
- speed of sound (323.15 K, x2 = 0.701): 1359.5 ± 7.3 m/s
- speed of sound (323.15 K, x2 = 0.799): 1271.4 ± 6.8 m/s
- speed of sound (323.15 K, x2 = 0.9): 1163 ± 6.3 m/s
- speed of sound (323.15 K, x2 = 0.951): 1096.1 ± 6 m/s
